Tests used:
M. incognita eggs = test: Egg hatching experiment, 96-well plate, 10 eggs per well, 16 days; assay type: in vivo, Meloidogyne incognita
Text: (§1) Tomato plants were inoculated with M. incognita juveniles and maintained in a growth chamber. After at least two months, the M. incognita eggs were extracted from the roots for experiments. The procedure followed for extracting M. incognita eggs is explained below.
(§2) The root tissues were either chopped by hand using a surgical blade and a watch glass, or it was chopped up using a food processor. The chopped tissue was then placed in a bottle and washed with a 10% dilution of bleach. Under sterile conditions, the root solution was then poured through sieves (60 count sieve on top, 500 count sieve on the bottom). The crude egg collection was collected from the bottom of the 500 count sieve into 5 mL each of bleach and egg mixture in 15 mL Falcon tubes. 5 mL of 70% sucrose solution was then placed in each Falcon tube. A 1 mL layer of double distilled sterile water was then gently placed on top of the sucrose mixtures in each Falcon tube. The samples were then centrifuged for 5 minutes at 1200 rpm. The embryos that were suspended between the sucrose solution and the 1 mL water layer were collected in a total of 3 mL (top layer of 3 mL of the solution) from each Falcon tube into fresh 15 mL Falcon tubes. 10 mL of a 5% bleach solution was added and the eggs were vortexed for 10 minutes. The Falcon tubes were then centrifuged for 5 minutes at 2000 rpm. The supernatant was then removed, and the eggs were rinsed in 10 mL of sterile double distilled water and re-centrifuged for 5 minutes at 2000 rpm. This process was repeated two more times. After the last wash, 5 mL of supernatant was removed, while the remaining 5 mL of water was mixed with the eggs and placed into a 5 mL Petri dish. The eggs were then placed in an incubator at 25-27° C., and juvenile worms (J2 stage) hatched after about 10 days. The worms were kept in a 25-27° C. incubator for storage.
The bioassay is designed to test the ability of the mixture of peptides and chalcone to prevent egg hatching (% unhatched eggs). Each test was performed in a 96-well plate with 10 eggs per well. The eggs were incubated in each treatment for 16 days. Hatched vs unhatched eggs were determined by microscopic images.
(§3) As described earlier, equal number nematodes were incubated in various treatment solutions in a 96-well plate for 5 days and the potency of different combination of nematicides was tested by counting the number of nematodes dead or surviving on Day 5. Similarly, the effect of different combination of nematicide composition on hatching of nematode eggs was also counted.

J2 M. incognita = test: Bioassay for killing J2 juvenile nematodes (% mortality), 96-well plate, 5 days; assay type: in vivo, Meloidogyne incognita; conditions: for effectiveness in killing juvenile nematodes: peptide alone (0.8 mg/ml where stated), Day 5
Text: as §1
as §2, with “The eggs were then placed in an incubator at 25-27° C., and juvenile worms (J2 stage) hatched after about 10 days. The worms were kept in a 25-27° C. incubator for storage.” left out
as §3

nematodes = conditions: cited from earlier work; for effective concentration for nematicidal activity: peptide alone; for nematicidal activity: peptide individually, 1 mg/ml

Compound | hatched eggs by Day 16 (M. incognita eggs; chalcone alone, 10^−4-10^−5 M) [%] | death of juvenile nematodes on Day 5 (J2 M. incognita; peptide alone, 0.8 mg/ml) | hatched eggs by Day 16 (M. incognita eggs; peptide alone, 0.8 mg/ml) | effective concentration for nematicidal activity (nematodes) | nematicidal activity (nematodes) [%] | effectiveness in killing juvenile nematodes (J2 M. incognita)
O=C(/C=C/c1ccccc1)c1ccc(Cl)cc1Cl [chalcone 17, (2E)-1-(2,4-Dichlorophenyl)-3-phenyl-2-propen-1-one] | ~50 | – | – | – | – | –
CCOc1ccc(C(=O)/C=C/c2ccccc2)cc1 [chalcone 25, (2E)-1-(4-Ethoxyphenyl)-3-phenyl-2-propen-1-one] | ~50 | – | – | – | – | –
Peptide 2: 15 amino acids DLLRPVVIAPQFSRQ (99-113 amino acid stretch of CED-4 protein, SEQ ID NO. 2) (Caenorhabditis elegans) | – | 60-80% | around 30% | about 1 mg/ml | 100 | –
Peptide 3: 19 amino acids RQMLDRKLLLGNVPKQMTC (112-130 amino acid stretch of CED-4 protein, SEQ ID NO. 3) (Caenorhabditis elegans) | – | – | around 10% | about 1 mg/ml | 100 | less effective
Peptide 12: 12 amino acids FPKFMQLHQKFY (529-540 amino acid stretch of CED-4 protein, SEQ ID NO. 4) (Caenorhabditis elegans) | – | – | around 20% | about 1 mg/ml | 100 | highly effective
